Legend:
Details in all cases: Compound concentration 1.0 uM
[1] = target: Serine/threonine-protein kinase/endoribonuclease IRE1 (Homo sapiens) (UniProt O75460)
[2] = target: T1, Tyrosine-protein kinase Tec (Homo sapiens) (UniProt P42680)
T1 sequence (whole entry): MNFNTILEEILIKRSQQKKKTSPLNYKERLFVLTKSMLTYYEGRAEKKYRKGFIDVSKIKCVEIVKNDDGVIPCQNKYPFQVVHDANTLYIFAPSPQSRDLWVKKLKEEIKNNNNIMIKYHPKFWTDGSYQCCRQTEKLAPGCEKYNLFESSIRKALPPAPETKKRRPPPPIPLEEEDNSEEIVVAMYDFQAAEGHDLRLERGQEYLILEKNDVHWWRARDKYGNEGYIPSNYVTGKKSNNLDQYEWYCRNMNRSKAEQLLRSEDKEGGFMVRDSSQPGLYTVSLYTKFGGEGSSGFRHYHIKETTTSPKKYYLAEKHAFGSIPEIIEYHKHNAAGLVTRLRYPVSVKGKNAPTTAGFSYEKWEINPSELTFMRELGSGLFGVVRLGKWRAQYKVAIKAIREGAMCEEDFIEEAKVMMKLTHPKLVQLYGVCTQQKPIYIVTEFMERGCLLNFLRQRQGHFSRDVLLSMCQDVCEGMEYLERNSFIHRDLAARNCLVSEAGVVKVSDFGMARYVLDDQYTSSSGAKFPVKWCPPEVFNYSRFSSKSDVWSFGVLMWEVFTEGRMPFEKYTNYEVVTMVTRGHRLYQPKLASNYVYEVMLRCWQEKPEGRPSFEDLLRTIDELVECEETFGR

[3] = target: [Pyruvate dehydrogenase (acetyl-transferring)] kinase isozyme 1, mitochondrial (Homo sapiens) (UniProt Q15118)
[4] = target: Serine/threonine-protein kinase 33 (Homo sapiens) (UniProt Q9BYT3)
Chain of Serine/threonine-protein kinase 33 (Homo sapiens) (Q9BYT3 whole entry, looked up): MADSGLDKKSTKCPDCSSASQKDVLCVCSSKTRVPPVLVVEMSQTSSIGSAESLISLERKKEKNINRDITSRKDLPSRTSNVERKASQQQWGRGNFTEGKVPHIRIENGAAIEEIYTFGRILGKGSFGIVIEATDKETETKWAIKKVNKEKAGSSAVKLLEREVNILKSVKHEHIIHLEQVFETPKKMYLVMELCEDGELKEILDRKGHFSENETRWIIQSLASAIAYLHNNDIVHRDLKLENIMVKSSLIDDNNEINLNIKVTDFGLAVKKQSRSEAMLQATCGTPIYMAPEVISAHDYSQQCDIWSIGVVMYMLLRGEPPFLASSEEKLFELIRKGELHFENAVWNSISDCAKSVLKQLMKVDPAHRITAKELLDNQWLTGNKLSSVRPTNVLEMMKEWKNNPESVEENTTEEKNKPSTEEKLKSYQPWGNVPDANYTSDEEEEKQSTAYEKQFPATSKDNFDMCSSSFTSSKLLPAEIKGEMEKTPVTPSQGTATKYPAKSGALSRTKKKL

[5] = target: T2, Tyrosine-protein kinase Mer (Homo sapiens) (UniProt Q12866)
T2 sequence (whole entry): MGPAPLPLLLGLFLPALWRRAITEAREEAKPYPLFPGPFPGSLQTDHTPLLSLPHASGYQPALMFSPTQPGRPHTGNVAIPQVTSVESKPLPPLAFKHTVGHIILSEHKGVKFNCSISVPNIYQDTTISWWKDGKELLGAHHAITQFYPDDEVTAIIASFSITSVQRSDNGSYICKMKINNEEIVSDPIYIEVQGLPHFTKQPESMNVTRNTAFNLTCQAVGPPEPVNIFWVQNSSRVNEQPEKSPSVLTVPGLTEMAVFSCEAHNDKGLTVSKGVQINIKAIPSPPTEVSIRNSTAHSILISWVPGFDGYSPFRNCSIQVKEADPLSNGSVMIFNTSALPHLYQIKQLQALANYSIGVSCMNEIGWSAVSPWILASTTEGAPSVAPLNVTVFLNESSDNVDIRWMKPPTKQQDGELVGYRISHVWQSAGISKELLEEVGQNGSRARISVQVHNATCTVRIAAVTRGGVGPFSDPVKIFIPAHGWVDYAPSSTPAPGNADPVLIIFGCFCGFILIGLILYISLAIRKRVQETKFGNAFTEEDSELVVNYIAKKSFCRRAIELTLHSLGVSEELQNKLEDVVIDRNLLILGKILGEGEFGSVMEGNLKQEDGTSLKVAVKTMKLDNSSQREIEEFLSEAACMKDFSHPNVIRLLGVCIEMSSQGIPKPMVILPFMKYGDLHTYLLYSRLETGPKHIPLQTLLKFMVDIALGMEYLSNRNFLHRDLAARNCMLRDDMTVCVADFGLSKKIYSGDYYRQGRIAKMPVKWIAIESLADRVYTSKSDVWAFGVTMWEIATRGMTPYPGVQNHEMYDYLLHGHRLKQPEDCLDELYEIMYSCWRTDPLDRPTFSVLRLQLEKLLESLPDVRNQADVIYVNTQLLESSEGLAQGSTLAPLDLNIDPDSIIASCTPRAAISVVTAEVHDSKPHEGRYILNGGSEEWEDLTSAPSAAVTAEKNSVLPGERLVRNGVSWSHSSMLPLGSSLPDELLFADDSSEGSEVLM

[6] = target: Calcium/calmodulin-dependent protein kinase type 1B (Homo sapiens) (UniProt Q6P2M8)
Chain of Calcium/calmodulin-dependent protein kinase type 1B (Homo sapiens) (Q6P2M8 whole entry): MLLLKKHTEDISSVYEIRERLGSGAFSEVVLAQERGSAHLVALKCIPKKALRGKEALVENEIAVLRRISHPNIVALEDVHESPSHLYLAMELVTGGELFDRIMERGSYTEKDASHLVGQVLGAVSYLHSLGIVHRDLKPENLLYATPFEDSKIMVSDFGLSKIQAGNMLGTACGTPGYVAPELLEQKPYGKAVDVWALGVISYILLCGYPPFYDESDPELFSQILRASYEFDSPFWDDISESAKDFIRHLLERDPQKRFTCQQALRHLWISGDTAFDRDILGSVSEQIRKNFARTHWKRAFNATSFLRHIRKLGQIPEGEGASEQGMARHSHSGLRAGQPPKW

[7] = target: T3, Testis-specific serine/threonine-protein kinase 1 (Homo sapiens) (UniProt Q9BXA7)
T3 sequence (whole entry): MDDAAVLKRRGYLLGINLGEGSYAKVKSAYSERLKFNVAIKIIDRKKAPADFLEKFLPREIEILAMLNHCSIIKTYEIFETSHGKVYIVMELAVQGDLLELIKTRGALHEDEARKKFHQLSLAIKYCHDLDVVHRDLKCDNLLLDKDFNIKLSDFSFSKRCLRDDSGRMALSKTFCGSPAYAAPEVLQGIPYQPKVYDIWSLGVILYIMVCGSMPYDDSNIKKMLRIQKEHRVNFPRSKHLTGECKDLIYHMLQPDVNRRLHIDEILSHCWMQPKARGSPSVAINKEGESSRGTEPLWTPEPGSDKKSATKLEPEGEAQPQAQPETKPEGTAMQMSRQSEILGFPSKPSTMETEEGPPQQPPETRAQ

[8] = target: Mitogen-activated protein kinase 1 (Homo sapiens) (UniProt P28482)
Chain of Mitogen-activated protein kinase 1 (Homo sapiens) (P28482 whole entry): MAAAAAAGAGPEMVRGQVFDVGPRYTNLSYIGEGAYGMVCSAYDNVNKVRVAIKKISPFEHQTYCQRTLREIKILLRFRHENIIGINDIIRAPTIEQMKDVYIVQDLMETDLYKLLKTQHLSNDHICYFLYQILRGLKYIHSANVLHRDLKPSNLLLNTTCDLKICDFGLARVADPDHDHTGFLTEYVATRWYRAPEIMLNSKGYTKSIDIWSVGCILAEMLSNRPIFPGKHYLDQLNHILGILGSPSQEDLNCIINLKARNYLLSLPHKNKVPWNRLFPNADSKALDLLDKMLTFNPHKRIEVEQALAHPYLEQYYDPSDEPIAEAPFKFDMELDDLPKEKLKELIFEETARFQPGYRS

[9] = target: T4, Tyrosine-protein kinase ZAP-70 (Homo sapiens) (UniProt P43403)
T4 sequence (whole entry): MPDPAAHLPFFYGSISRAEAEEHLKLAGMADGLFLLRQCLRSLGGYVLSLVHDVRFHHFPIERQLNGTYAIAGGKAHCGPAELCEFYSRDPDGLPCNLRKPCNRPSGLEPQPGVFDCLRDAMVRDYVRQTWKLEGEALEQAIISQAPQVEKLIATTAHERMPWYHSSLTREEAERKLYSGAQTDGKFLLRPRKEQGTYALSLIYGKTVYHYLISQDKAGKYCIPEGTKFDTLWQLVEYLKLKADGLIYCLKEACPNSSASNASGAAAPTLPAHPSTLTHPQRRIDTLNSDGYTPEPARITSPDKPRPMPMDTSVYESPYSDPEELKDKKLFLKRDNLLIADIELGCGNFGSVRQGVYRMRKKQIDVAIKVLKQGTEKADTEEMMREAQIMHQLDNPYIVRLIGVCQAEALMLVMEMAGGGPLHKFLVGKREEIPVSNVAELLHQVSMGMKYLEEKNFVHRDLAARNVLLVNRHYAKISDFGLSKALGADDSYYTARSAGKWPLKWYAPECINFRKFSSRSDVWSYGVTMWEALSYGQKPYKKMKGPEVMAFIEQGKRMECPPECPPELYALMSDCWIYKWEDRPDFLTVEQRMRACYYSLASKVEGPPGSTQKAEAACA

[10] = target: Serine/threonine-protein kinase NIM1 (Homo sapiens) (UniProt Q8IY84)
Chain of Serine/threonine-protein kinase NIM1 (Homo sapiens) (Q8IY84 whole entry): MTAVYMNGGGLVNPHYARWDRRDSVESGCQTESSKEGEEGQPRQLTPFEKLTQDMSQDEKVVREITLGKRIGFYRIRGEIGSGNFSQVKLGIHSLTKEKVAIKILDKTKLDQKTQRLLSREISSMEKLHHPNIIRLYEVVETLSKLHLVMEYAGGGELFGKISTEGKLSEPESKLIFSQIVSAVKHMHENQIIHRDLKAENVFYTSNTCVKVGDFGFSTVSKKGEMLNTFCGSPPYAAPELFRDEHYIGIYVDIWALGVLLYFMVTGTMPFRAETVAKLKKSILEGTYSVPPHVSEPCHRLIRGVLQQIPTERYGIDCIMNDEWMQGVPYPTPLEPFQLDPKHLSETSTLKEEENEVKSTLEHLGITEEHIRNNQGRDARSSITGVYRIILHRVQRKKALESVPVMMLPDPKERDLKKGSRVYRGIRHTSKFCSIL

Measured: % residual kinase activity

Chain of Serine/threonine-protein kinase/endoribonuclease IRE1 (Homo sapiens) (O75460 19-977 limits assumed): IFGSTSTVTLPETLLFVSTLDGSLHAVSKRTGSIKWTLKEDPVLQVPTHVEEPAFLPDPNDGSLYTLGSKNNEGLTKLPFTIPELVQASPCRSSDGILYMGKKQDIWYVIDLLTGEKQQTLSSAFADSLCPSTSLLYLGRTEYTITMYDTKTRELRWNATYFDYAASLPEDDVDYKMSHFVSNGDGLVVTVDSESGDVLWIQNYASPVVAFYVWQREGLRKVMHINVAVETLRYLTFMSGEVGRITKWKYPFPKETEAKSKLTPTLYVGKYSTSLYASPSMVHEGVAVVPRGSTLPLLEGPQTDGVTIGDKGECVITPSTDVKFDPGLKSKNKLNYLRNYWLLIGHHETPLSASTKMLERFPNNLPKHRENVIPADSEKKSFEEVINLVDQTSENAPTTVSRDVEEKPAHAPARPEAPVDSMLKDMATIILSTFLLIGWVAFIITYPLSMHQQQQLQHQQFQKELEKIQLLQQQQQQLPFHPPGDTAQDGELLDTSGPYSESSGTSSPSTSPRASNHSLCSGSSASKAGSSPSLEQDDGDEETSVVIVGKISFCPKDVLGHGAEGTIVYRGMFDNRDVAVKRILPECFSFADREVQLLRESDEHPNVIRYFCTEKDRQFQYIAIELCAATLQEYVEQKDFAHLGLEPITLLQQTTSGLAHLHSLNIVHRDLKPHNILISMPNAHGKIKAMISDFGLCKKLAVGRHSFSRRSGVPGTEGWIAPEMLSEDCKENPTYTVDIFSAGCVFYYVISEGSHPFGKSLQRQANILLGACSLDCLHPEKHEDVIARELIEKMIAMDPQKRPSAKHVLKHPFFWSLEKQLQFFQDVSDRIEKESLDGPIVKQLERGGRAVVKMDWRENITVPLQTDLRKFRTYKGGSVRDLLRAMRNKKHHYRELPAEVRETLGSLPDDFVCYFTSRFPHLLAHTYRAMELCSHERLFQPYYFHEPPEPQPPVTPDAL

CN1CCN(c2cnc3c(C4CCN(C(=O)c5ccc(OC(F)(F)F)cc5N)CC4)ncnc3c2)CC1 [BAY-885]
inactive: [1] 110% | [2] 112% | [3] 89% | [4] 103% | [5] 91% | [6] 104% | [7] 107% | [8] 107% | [9] 108% | [10] 108%

Reference: ChEMBL document CHEMBL4507268 (2021)
